# From the supplement of paper PMC10733146
# Experiments:
# Assay in all cases: viability relative to DMSO control (fraction); higher = less drug effect (more viable cells)
# Conditions in all cases: 48 h
# [1] = system: primary ALL patient cells (S088)
# Procedure, shortened: (§1)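 Cells were incubated for 48 h at 37 °C and 5% CO2 in RPMI-1640 with penicillin/streptomycin, L-glutamine and human serum, at 4 × 10^4 cells per well in 384-well plates with compounds pre-plated at five concentrations, one well each. These were primary mononuclear tumour cells, fresh or cryopreserved, Ficoll-isolated from blood or bone marrow or obtained from processed lymph node. Viability values are CellTiter-Glo luminescence relative to the median of 16 inner DMSO wells.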
# [2] = system: primary AML patient cells (S007)
# Procedure, shortened: as §1
# [3] = system: primary AML patient cells (S011)
# Procedure, shortened: as §1
# [4] = system: primary AML patient cells (S019)
# Procedure, shortened: as §1
# [5] = system: primary AML patient cells (S037)
# Procedure, shortened: as §1
# [6] = system: primary AML patient cells (S060)
# Procedure, shortened: as §1
# [7] = system: primary AML patient cells (S071)
# Procedure, shortened: as §1
# [8] = system: primary AML patient cells (S085)
# Procedure, shortened: as §1
# [9] = system: primary AML patient cells (S089)
# Procedure, shortened: as §1
# [10] = system: primary AML patient cells (S091)
# Procedure, shortened: as §1
# [11] = system: primary B-PLL patient cells (S016)
# Procedure, shortened: as §1
# [12] = system: primary CLL patient cells (S031)
# Procedure, shortened: as §1
# [13] = system: primary DLBCL patient cells (S082)
# Procedure, shortened: as §1
# [14] = system: primary FL patient cells (S087)
# Procedure, shortened: as §1
# [15] = system: primary MCL patient cells (S041)
# Procedure, shortened: as §1
# [16] = system: primary DLBCL patient cells (S049)
# Procedure, shortened: as §1
# [17] = system: primary DLBCL patient cells (S076)
# Procedure, shortened: as §1
# [18] = system: primary T-NHL patient cells (S058)
# Procedure, shortened: as §1
smiles,measurement,setting,value
O=C(O)CSc1cc(NS(=O)(=O)c2ccc(Br)cc2)c2ccccc2c1O [UMI-77],viability,[1]; 0.024 µM,0.244
same,viability,[1]; 0.12 µM,0.291
same,viability,[1]; 0.6 µM,0.291
same,viability,[1]; 3 µM,0.316
same,viability,[1]; 15 µM,0.158
same,viability,[2]; 0.024 µM,0.894
same,viability,[2]; 0.12 µM,0.94
same,viability,[2]; 0.6 µM,0.853
same,viability,[2]; 3 µM,0.973
same,viability,[2]; 15 µM,0.891
same,viability,[3]; 0.024 µM,0.457
same,viability,[3]; 0.12 µM,0.654
same,viability,[3]; 0.6 µM,0.618
same,viability,[3]; 3 µM,0.47
same,viability,[3]; 15 µM,0.227
same,viability,[4]; 0.024 µM,1.28
same,viability,[4]; 0.12 µM,1.35
same,viability,[4]; 0.6 µM,1.17
same,viability,[4]; 3 µM,1.24
same,viability,[4]; 15 µM,0.831
same,viability,[5]; 0.024 µM,1.05
same,viability,[5]; 0.12 µM,1.04
same,viability,[5]; 0.6 µM,0.985
same,viability,[5]; 3 µM,0.978
same,viability,[5]; 15 µM,0.633
same,viability,[6]; 0.024 µM,1.1
same,viability,[6]; 0.12 µM,1.13
same,viability,[6]; 0.6 µM,1.04
same,viability,[6]; 3 µM,1.03
same,viability,[6]; 15 µM,0.73
same,viability,[7]; 0.024 µM,0.883
same,viability,[7]; 0.12 µM,0.921
same,viability,[7]; 0.6 µM,0.879
same,viability,[7]; 3 µM,0.85
same,viability,[7]; 15 µM,0.644
same,viability,[8]; 0.024 µM,0.887
same,viability,[8]; 0.12 µM,1.07
same,viability,[8]; 0.6 µM,0.905
same,viability,[8]; 3 µM,0.834
same,viability,[8]; 15 µM,1.53
same,viability,[9]; 0.024 µM,0.835
same,viability,[9]; 0.12 µM,0.672
same,viability,[9]; 0.6 µM,0.737
same,viability,[9]; 3 µM,1.03
same,viability,[9]; 15 µM,0.998
same,viability,[10]; 0.024 µM,1.02
same,viability,[10]; 0.12 µM,1.03
same,viability,[10]; 0.6 µM,1.13
same,viability,[10]; 3 µM,1.32
same,viability,[10]; 15 µM,0.996
same,viability,[11]; 0.024 µM,1.11
same,viability,[11]; 0.12 µM,1.11
same,viability,[11]; 0.6 µM,0.994
same,viability,[11]; 3 µM,1.07
same,viability,[11]; 15 µM,0.778
same,viability,[12]; 0.024 µM,0.84
same,viability,[12]; 0.12 µM,0.875
same,viability,[12]; 0.6 µM,0.886
same,viability,[12]; 3 µM,0.878
same,viability,[12]; 15 µM,0.73
same,viability,[13]; 0.024 µM,0.995
same,viability,[13]; 0.12 µM,1.02
same,viability,[13]; 0.6 µM,0.846
same,viability,[13]; 3 µM,0.908
same,viability,[13]; 15 µM,0.595
same,viability,[14]; 0.024 µM,0.936
same,viability,[14]; 0.12 µM,0.937
same,viability,[14]; 0.6 µM,0.923
same,viability,[14]; 3 µM,0.876
same,viability,[14]; 15 µM,0.256
same,viability,[15]; 0.024 µM,0.968
same,viability,[15]; 0.12 µM,0.986
same,viability,[15]; 0.6 µM,0.955
same,viability,[15]; 3 µM,0.929
same,viability,[15]; 15 µM,0.331
COc1ccc(C2=N[C@@H](c3ccc(Cl)cc3)[C@@H](c3ccc(Cl)cc3)N2C(=O)N2CCNC(=O)C2)c(OC(C)C)c1 [Nutlin-3a],viability,[1]; 0.032 µM,0.954
same,viability,[1]; 0.16 µM,0.854
same,viability,[1]; 0.8 µM,0.795
same,viability,[1]; 4 µM,0.355
same,viability,[1]; 20 µM,0.133
same,viability,[3]; 0.032 µM,0.973
same,viability,[3]; 0.16 µM,1.04
same,viability,[3]; 0.8 µM,0.8
same,viability,[3]; 4 µM,0.363
same,viability,[3]; 20 µM,0.155
same,viability,[4]; 0.032 µM,1.13
same,viability,[4]; 0.16 µM,1.03
same,viability,[4]; 0.8 µM,1.08
same,viability,[4]; 4 µM,0.546
same,viability,[4]; 20 µM,0.259
same,viability,[5]; 0.032 µM,0.982
same,viability,[5]; 0.16 µM,0.974
same,viability,[5]; 0.8 µM,0.964
same,viability,[5]; 4 µM,0.742
same,viability,[5]; 20 µM,0.421
same,viability,[6]; 0.032 µM,1.02
same,viability,[6]; 0.16 µM,0.99
same,viability,[6]; 0.8 µM,1.03
same,viability,[6]; 4 µM,1.01
same,viability,[6]; 20 µM,0.974
same,viability,[7]; 0.032 µM,0.982
same,viability,[7]; 0.16 µM,0.78
same,viability,[7]; 0.8 µM,0.342
same,viability,[7]; 4 µM,0.117
same,viability,[7]; 20 µM,0.0641
same,viability,[8]; 0.032 µM,1.06
same,viability,[8]; 0.16 µM,1.31
same,viability,[8]; 0.8 µM,0.877
same,viability,[8]; 4 µM,0.509
same,viability,[8]; 20 µM,0.503
same,viability,[9]; 0.032 µM,1.07
same,viability,[9]; 0.16 µM,1.01
same,viability,[9]; 0.8 µM,1.01
same,viability,[9]; 4 µM,0.802
same,viability,[9]; 20 µM,0.511
same,viability,[10]; 0.032 µM,0.988
same,viability,[10]; 0.16 µM,0.84
same,viability,[10]; 0.8 µM,0.62
same,viability,[10]; 4 µM,0.404
same,viability,[10]; 20 µM,0.365
same,viability,[11]; 0.032 µM,1.06
same,viability,[11]; 0.16 µM,0.946
same,viability,[11]; 0.8 µM,1.02
same,viability,[11]; 4 µM,0.733
same,viability,[11]; 20 µM,0.101
same,viability,[12]; 0.032 µM,0.869
same,viability,[12]; 0.16 µM,0.929
same,viability,[12]; 0.8 µM,0.8
same,viability,[12]; 4 µM,0.451
same,viability,[12]; 20 µM,0.089
same,viability,[16]; 0.032 µM,1.1
same,viability,[16]; 0.16 µM,0.987
same,viability,[16]; 0.8 µM,1.01
same,viability,[16]; 4 µM,1.04
same,viability,[16]; 20 µM,0.835
same,viability,[17]; 0.032 µM,0.907
same,viability,[17]; 0.16 µM,0.909
same,viability,[17]; 0.8 µM,0.934
same,viability,[17]; 4 µM,0.737
same,viability,[17]; 20 µM,0.357
same,viability,[13]; 0.032 µM,1.07
same,viability,[13]; 0.16 µM,1.02
same,viability,[13]; 0.8 µM,1.1
same,viability,[13]; 4 µM,1.04
same,viability,[13]; 20 µM,1.12
same,viability,[14]; 0.032 µM,0.984
same,viability,[14]; 0.16 µM,0.964
same,viability,[14]; 0.8 µM,0.931
same,viability,[14]; 4 µM,0.816
same,viability,[14]; 20 µM,0.675
same,viability,[15]; 0.032 µM,0.988
same,viability,[15]; 0.16 µM,0.976
same,viability,[15]; 0.8 µM,0.921
same,viability,[15]; 4 µM,0.717
same,viability,[15]; 20 µM,0.34
same,viability,[18]; 0.032 µM,0.946
same,viability,[18]; 0.16 µM,0.939
same,viability,[18]; 0.8 µM,0.941
same,viability,[18]; 4 µM,0.634
same,viability,[18]; 20 µM,0.18
Nc1ccn([C@@H]2O[C@H](CO)[C@@H](O)[C@@H]2O)c(=O)n1 [Cytarabine],viability,[1]; 0.032 µM,1.08
same,viability,[1]; 0.16 µM,0.969
same,viability,[1]; 0.8 µM,0.676
same,viability,[1]; 4 µM,0.304
same,viability,[1]; 20 µM,0.138
same,viability,[3]; 0.032 µM,1.52
same,viability,[3]; 0.16 µM,1.04
same,viability,[3]; 0.8 µM,0.942
same,viability,[3]; 4 µM,0.681
same,viability,[3]; 20 µM,0.224
same,viability,[4]; 0.032 µM,1.19
same,viability,[4]; 0.16 µM,1.15
same,viability,[4]; 0.8 µM,0.871
same,viability,[4]; 4 µM,0.387
same,viability,[4]; 20 µM,0.24
same,viability,[5]; 0.032 µM,1.08
same,viability,[5]; 0.16 µM,1.03
same,viability,[5]; 0.8 µM,1.02
same,viability,[5]; 4 µM,0.666
same,viability,[5]; 20 µM,0.467
same,viability,[6]; 0.032 µM,1.09
same,viability,[6]; 0.16 µM,1.02
same,viability,[6]; 0.8 µM,1.01
same,viability,[6]; 4 µM,0.505
same,viability,[6]; 20 µM,0.132
same,viability,[7]; 0.032 µM,0.891
same,viability,[7]; 0.16 µM,0.797
same,viability,[7]; 0.8 µM,0.64
same,viability,[7]; 4 µM,0.257
same,viability,[7]; 20 µM,0.172
same,viability,[8]; 0.032 µM,1.1
same,viability,[8]; 0.16 µM,1.02
same,viability,[8]; 0.8 µM,0.925
same,viability,[8]; 4 µM,0.372
same,viability,[8]; 20 µM,0.106
same,viability,[9]; 0.032 µM,1.1
same,viability,[9]; 0.16 µM,0.993
same,viability,[9]; 0.8 µM,0.783
same,viability,[9]; 4 µM,0.142
same,viability,[9]; 20 µM,0.0678
same,viability,[10]; 0.032 µM,0.974
same,viability,[10]; 0.16 µM,0.858
same,viability,[10]; 0.8 µM,0.694
same,viability,[10]; 4 µM,0.513
same,viability,[10]; 20 µM,0.409
same,viability,[11]; 0.032 µM,1.11
same,viability,[11]; 0.16 µM,0.733
same,viability,[11]; 0.8 µM,0.145
same,viability,[11]; 4 µM,0.0425
same,viability,[11]; 20 µM,0.0373
same,viability,[12]; 0.032 µM,1.15
same,viability,[12]; 0.16 µM,1.04
same,viability,[12]; 0.8 µM,0.706
same,viability,[12]; 4 µM,0.177
same,viability,[12]; 20 µM,0.0741
same,viability,[16]; 0.032 µM,1.01
same,viability,[16]; 0.16 µM,0.886
same,viability,[16]; 0.8 µM,0.673
same,viability,[16]; 4 µM,0.264
same,viability,[16]; 20 µM,0.143
same,viability,[17]; 0.032 µM,1.01
same,viability,[17]; 0.16 µM,0.793
same,viability,[17]; 0.8 µM,0.711
same,viability,[17]; 4 µM,0.319
same,viability,[17]; 20 µM,0.118
same,viability,[13]; 0.032 µM,1.08
same,viability,[13]; 0.16 µM,0.974
same,viability,[13]; 0.8 µM,0.702
same,viability,[13]; 4 µM,0.522
same,viability,[13]; 20 µM,0.484
same,viability,[14]; 0.032 µM,1.03
same,viability,[14]; 0.16 µM,1.02
same,viability,[14]; 0.8 µM,0.959
same,viability,[14]; 4 µM,0.747
same,viability,[14]; 20 µM,0.628
same,viability,[15]; 0.032 µM,1.08
same,viability,[15]; 0.16 µM,1
same,viability,[15]; 0.8 µM,0.732
same,viability,[15]; 4 µM,0.21
same,viability,[15]; 20 µM,0.115
same,viability,[18]; 0.032 µM,0.81
same,viability,[18]; 0.16 µM,0.397
same,viability,[18]; 0.8 µM,0.237
same,viability,[18]; 4 µM,0.166
same,viability,[18]; 20 µM,0.108
